Data set [1] deals with uremic pruritus and sine materia pruritus forms. The following applies: human, in vivo.
The conditions of data set [2]: systemic, 2 to 6 g per day, therapy of hyperlipidemia; cited from earlier work.
The subject of data set [3] is uremic pruritus and sine materia pruritus forms. Briefly: Clinical experimentation: systemic niacin or niacinamide alone at pellagra dosage in pruritus forms. Conditions: for effectiveness in combating the pruritus forms: systemic administration alone at pellagra dosage, uremic and sine materia pruritus.
Data set [4] concerns uremic pruritus. The data set can be described thus: Clinical case reports: uremic pruritus (renal dialysis, chronic renal failure or insufficiency). The format is in vivo, human. As to the method: In the treatment of uremic subjects who currently undergo dialysis the protocol is the same as for the 1st phase above, but the continuation of the treatment with half the dose will take place starting after each dialysis treatment (also in this case, after the meal and with abundant water).
Thereafter, the patient was treated with 50 mg of nicotinamide+2.5 mg of riboflavin twice daily, by oral administration. […] The patient continued the same therapy for about 15 days, and thereafter the dosage was reduced to one-half, the administration occurring after the dialysis treatment. […]
Lastly, they underwent an additional 3 hours dialysis treatment each week, with carbon filter, for four weeks on end.
The treatment was started with 50 mg of nicotinamide twice daily, to be taken orally after the main meals. […] The patient continued to take 50 mg of nicotinamide after dinner for 15 more days, and then they took 50 mg of the same agent only on the day of the dialytic treatment. […]

Data set [5] deals with senile pruritus. The data set can be described thus: Clinical case reports: senile pruritus. The format is in vivo, human. An excerpt: (§1) It is advisable to take the medicament by the oral route, after the main meals, with abundant water (at least half a glass). In the event that the treatment is discontinued and the symptoms revert, it is necessary to start again from the 1st phase.
3rd case— subject with senile pruritus—The patient had been complaining for about 3 years of a diffused itching, which had become increasingly intense. At first, they consulted their physician, who addressed them to a dermatologist.
The patient was then treated by oral administration of 50 mg of nicotinamide+2.5 mg of riboflavin twice daily. […] Thereafter, the therapy was reduced to half the dosage, for 15 days a month.
4th case— subject with senile pruritus—The patient had been suffering for about 2 years and a half from a diffused continuous itching at the torso and on the upper and lower limbs.
The treatment was continued with half the dose for further 15 days and then it was finally discontinued.
The treatment with half the dose was continued for 15 days, and then it was discontinued.
3rd case— subject with senile pruritus—The patient had been suffering for about one year from a diffused itching. […] Thereafter, the diagnosis of senile itching was made.

Data set [6] has as its system anal and vulvar pruritus. The data set can be described thus: Clinical case reports: anal and vulvar pruritus. The format is in vivo, human.
Excerpt: as §1
As a first attempt, a gastroenterologist had been consulted for the anal itching, and thereafter a gynaecologist had been consulted for the vulvar itching.
The treatment was continued for 12 more days, and then it was reduced to half the dosage, for 15 days a month.
Then, the patient was given a therapy with 50 mg of nicotinamide twice daily, by oral administration, after the main meals. […] The patient continued to take 50 mg of nicotinamide daily, after dinner, for 15 days, and then they discontinued the treatment.
The treatment was then continued for 15 more days, with half the dosage, and then finally discontinued.

Read-outs that look alike come from different tables or passages of the source.

With `O=C(O)c1cccnc1` [niacin, 3-pyridinecarboxylic acid], the “side effects of flushing and itching” value in data set [1] was “does not lead to the undesired side effects of flushing and itching”. Moreover, the “adverse side effects at large doses” value in data set [2] is “adverse side effects, including gastrointestinal disturbances (such as abdominal pain and nausea) hepatotoxicity, and, above all, flushing”. Moreover, in data set [3], the “effectiveness in combating the pruritus forms” value is given as “not appreciably effective”.

For `NC(=O)c1cccnc1` [nicotinamide], the “pruritus after one month and a half” value in data set [4] (series 2 case 1: person on renal dialysis, 50 mg nicotinamide alone twice daily oral) is on record as “pruritus had sensibly decreased”. In addition, the “itching at check-up after one month” value in data set [4] (series 2 case 1, nicotinamide alone, reduced to 50 mg on dialysis days) was “still complained of some moderate itching”. In addition, in data set [4] (series 2 case 2: person on renal dialysis, 50 mg nicotinamide alone twice daily oral), the “symptom after 45 days” value was “appreciable reduction of the symptom”. Moreover, the “itching 15 days after discontinuation” value in data set [4] (series 2 case 2, nicotinamide alone) is “itching had started again to gradually increase”; in data set [6] (series 2 case 3, nicotinamide alone), “itching started to increase again”. Also, the “itching after 35 days” value in data set [4] (series 2 case 5: chronic renal insufficiency, 50 mg nicotinamide alone twice daily oral) is “some moderate itching”. Also, the “itching about 10 days after discontinuation” value in data set [4] (series 2 case 5, nicotinamide alone) is on record as “itching had started to increase again”; in data set [5] (series 2 case 4, nicotinamide alone), “itching had started again to increase”. In addition, the “itching after 65 days” value in data set [4] (series 3 case 1: person on renal dialysis three times weekly, 50 mg nicotinamide alone twice daily oral) is reported as “itching had only become milder without disappearing”. The “pruritus at check-ups every 2 months” value in data set [4] (series 3 case 1, 50 mg nicotinamide after each dialysis treatment) is “persistent pruritus of a reduced intensity”. The “itching after 50 days” value in data set [4] (series 3 case 2: renal insufficiency, 50 mg nicotinamide alone twice daily oral) was “itching had become milder, without totally disappearing”. In addition, the “itching at subsequent periodical checks” value in data set [4] (series 3 case 2, continued 50 mg/day nicotinamide) is reported as “moderate itching diffused on the whole body”. In addition, the “pruritus after 40 days” value in data set [5] (series 2 case 4: senile pruritus, 50 mg nicotinamide alone twice daily oral) is given as “pruritus was quite mild”. In addition, the “itching after 45 days” value in data set [5] (series 3 case 3: senile pruritus, 50 mg nicotinamide alone twice daily oral) is recorded as “itching had only slightly decreased”. For the same compound, the “itching at subsequent monthly checks” value in data set [5] (series 3 case 3, nicotinamide therapy continued) is on record as “diffused moderate itching”; in data set [6] (series 3 case 4, still taking 50 mg/day nicotinamide), “still complained of a moderate itching”. For the same compound, the “itching after 60 days” value in data set [6] (series 2 case 3: anal vulvar pruritus, 50 mg nicotinamide alone twice daily oral) is given as “itching was moderate”. The “symptoms after 2 months” value in data set [6] (series 3 case 4: anal and vulvar pruritus, 50 mg nicotinamide alone twice daily oral) is recorded as “a decrease of the symptoms was detected”. Also, the “adverse side effects at large doses” value in data set [2] was “adverse side effects, including gastrointestinal disturbances (such as abdominal pain and nausea) hepatotoxicity, and, above all, flushing”. The “effectiveness in combating the pruritus forms” value in data set [3] is given as “not appreciably effective”. Further, the “side effects of flushing and itching” value in data set [3] (systemic administration alone at the dosage used for prevention and therapy of pellagra) is “does not lead to the undesired side effects of flushing and itching”.

Source of the values: patent US7291625B2, “Use of a vitamin combination for the treatment of pruritus and non-infective disorders involving itching and/or inflammation” (priority 1999, dated 2007).
